Where a name gives a salt, the structure may show the parent alone.
## CCn1c(N)c(C(=O)NC)c(=O)c2ccc(-c3ccc(NS(=O)(=O)c4cccc(Cl)c4Cl)cc3Cl)nc21 [compound No. 13, 2-amino-7-(2-chloro-4-{[(2,3-dichlorophenyl)sulfonyl]amino}phenyl)-1-ethyl-N-methyl-4-oxo-1,4-dihydro-1,8-naphthyridine-3-carboxamide]
  melting point: 239 °C

## CCn1c(N)c(C(=O)NC)c(=O)c2ccc(-c3ccc(NS(=O)(=O)c4cc(Cl)ccc4Cl)cc3Cl)nc21 [compound No. 12, 2-amino-7-(2-chloro-4-{[(2,5-dichlorophenyl)sulfonyl]amino}phenyl)-1-ethyl-N-methyl-4-oxo-1,4-dihydro-1,8-naphthyridine-3-carboxamide]
  melting point: 323 °C

## CCn1c(N)c(C(=O)NC)c(=O)c2ccc(-c3ccc(NS(C)(=O)=O)cc3)nc21 [compound No. 16, 2-amino-1-ethyl-N-methyl-7-{4-[(methylsulfonyl)amino]phenyl}-4-oxo-1,4-dihydro-1,8-naphthyridine-3-carboxamide]
  melting point: > 300 °C

## CCn1c(N)c(C(=O)NC)c(=O)c2ccc(-c3ccc(NS(=O)(=O)c4ccccc4Cl)cc3)nc21 [compound No. 19, 2-amino-7-(4-{[(2-chlorophenyl)sulfonyl]amino}phenyl)-1-ethyl-N-methyl-4-oxo-1,4-dihydro-1,8-naphthyridine-3-carboxamide]
  melting point: > 260 °C

## C=CS(=O)(=O)Nc1ccc(-c2ccc3c(=O)c(C(=O)NC)c(N)n(CC)c3n2)cc1F [compound No. 3, 2-amino-7-{4-[(ethenylsulfonyl)amino]-3-fluorophenyl}-1-ethyl-N-methyl-4-oxo-1,4-dihydro-1,8-naphthyridine-3-carboxamide]
  melting point: > 260 °C

## CCCCS(=O)(=O)Nc1ccc(-c2ccc3c(=O)c(C(=O)NC)c(N)n(CC)c3n2)cc1F [compound No. 7, 2-amino-7-{4-[(butylsulfonyl)amino]-3-fluorophenyl}-1-ethyl-N-methyl-4-oxo-1,4-dihydro-1,8-naphthyridine-3-carboxamide]
  melting point: 165 to 167 °C

## CCn1c(N)c(C(=O)NC)c(=O)c2ccc(-c3ccc(NS(=O)(=O)c4cn(C)cn4)c(F)c3)nc21 (as salt: HCl) [compound No. 6, 2-amino-1-ethyl-7-(3-fluoro-4-{[(1-methyl-1H-imidazol-4-yl)sulfonyl]amino}phenyl)-N-methyl-4-oxo-1,4-dihydro-1,8-naphthyridine-3-carboxamide]
  melting point: > 300 °C

## CCn1c(N)c(C(=O)NC)c(=O)c2ccc(-c3ccc(NS(=O)(=O)c4cccc(Cl)c4)c(F)c3)nc21 [compound No. 22, 2-amino-7-(4-{[(3-chlorophenyl)sulfonyl]amino}-3-fluorophenyl)-1-ethyl-N-methyl-4-oxo-1,4-dihydro-1,8-naphthyridine-3-carboxamide]
  melting point: > 260 °C

## CCn1c(N)c(C(=O)NC)c(=O)c2ccc(-c3ccc(NS(=O)(=O)c4cccc(OC)c4)c(F)c3)nc21 [compound No. 25, 2-amino-1-ethyl-7-(3-fluoro-4-{[(3-methoxyphenyl)sulfonyl]amino}phenyl)-N-methyl-4-oxo-1,4-dihydro-1,8-naphthyridine-3-carboxamide]
  melting point: > 260 °C

## CCn1c(N)c(C(=O)NC)c(=O)c2ccc(-c3ccc(NS(=O)(=O)c4c(Cl)cccc4Cl)c(F)c3)nc21 [compound No. 11, 2-amino-7-(4-{[(2,6-dichlorophenyl)sulfonyl]amino}-3-fluorophenyl)-1-ethyl-N-methyl-4-oxo-1,4-dihydro-1,8-naphthyridine-3-carboxamide]
  melting point: 321 °C

## CCn1c(N)c(C(=O)NC)c(=O)c2ccc(-c3ccc(NS(=O)(=O)c4cccc(Cl)c4Cl)c(C)c3)nc21 [compound No. 15, 2-amino-7-(4-{[(2,3-dichlorophenyl)sulfonyl]amino}-3-methylphenyl)-1-ethyl-N-methyl-4-oxo-1,4-dihydro-1,8-naphthyridine-3-carboxamide]
  melting point: 299 °C

## CCn1c(N)c(C(=O)NC)c(=O)c2ccc(-c3ccc(NS(=O)(=O)Cc4cccc(N)c4)c(F)c3)nc21 (as salt: HCl) [compound No. 5, 2-amino-7-(4-{[(3-aminobenzyl)sulfonyl]amino}-3-fluorophenyl)-1-ethyl-N-methyl-4-oxo-1,4-dihydro-1,8-naphthyridine-3-carboxamide]
  melting point: > 260 °C

## CCn1c(N)c(C(=O)NC)c(=O)c2ccc(-c3ccc(NS(=O)(=O)CCN(C)C)c(F)c3)nc21 (as salt: HCl) [compound No. 4, 2-amino-7-[4-({[2-(dimethylamino)ethyl]sulfonyl}amino)-3-fluorophenyl]-1-ethyl-N-methyl-4-oxo-1,4-dihydro-1,8-naphthyridine-3-carboxamide]
  melting point: 268 to 270 °C

## CCn1c(N)c(C(=O)NC)c(=O)c2ccc(-c3ccc(NS(=O)(=O)Cc4cccnc4)c(F)c3)nc21 (as salt: HCl) [compound No. 1, 2-amino-1-ethyl-7-(3-fluoro-4-{[(pyridin-3-ylmethyl)sulfonyl]amino}phenyl)-N-methyl-4-oxo-1,4-dihydro-1,8-naphthyridine-3-carboxamide]
  melting point: 220 to 223 °C

## CCn1c(N)c(C(=O)NC)c(=O)c2ccc(-c3ccc(NS(=O)(=O)Cc4ccccn4)c(F)c3)nc21 (as salt: HCl) [compound No. 27, 2-amino-1-ethyl-7-(3-fluoro-4-{[(pyridin-2-ylmethyl)sulfonyl]amino}phenyl)-N-methyl-4-oxo-1,4-dihydro-1,8-naphthyridine-3-carboxamide]
  melting point: 260 °C

## CCn1c(N)c(C(=O)NC)c(=O)c2ccc(-c3ccc(NS(=O)(=O)c4ccc(N5CCOCC5)nc4)c(F)c3)nc21 (as salt: HCl) [compound No. 26, 2-amino-1-ethyl-7-[3-fluoro-4-({[6-(morpholin-4-yl)pyridin-3-yl]sulfonyl}amino)phenyl]-N-methyl-4-oxo-1,4-dihydro-1,8-naphthyridine-3-carboxamide]
  melting point: > 260 °C

## CCn1c(N)c(C(=O)NC)c(=O)c2ccc(-c3ccc(NS(=O)(=O)c4ccc(Cl)cc4)c(F)c3)nc21 [compound No. 21, 2-amino-7-(4-{[(4-chlorophenyl)sulfonyl]amino}-3-fluorophenyl)-1-ethyl-N-methyl-4-oxo-1,4-dihydro-1,8-naphthyridine-3-carboxamide]
  melting point: > 260 °C

## CCn1c(N)c(C(=O)NC)c(=O)c2ccc(-c3ccc(NS(=O)(=O)c4cccc(Cl)c4Cl)cc3)nc21 [compound No. 17, 2-amino-7-(4-{[(2,3-dichlorophenyl)sulfonyl]amino}phenyl)-1-ethyl-N-methyl-4-oxo-1,4-dihydro-1,8-naphthyridine-3-carboxamide]
  melting point: 210 °C

## CCn1c(N)c(C(=O)NC)c(=O)c2ccc(-c3ccc(NS(=O)(=O)c4ccc(F)c(F)c4)c(F)c3)nc21 [compound No. 23, 2-amino-7-(4-{[(3,4-difluorophenyl)sulfonyl]amino}-3-fluorophenyl)-1-ethyl-N-methyl-4-oxo-1,4-dihydro-1,8-naphthyridine-3-carboxamide]
  melting point: > 260 °C
